Values belong to the molecule of their own block, whether it stands above or below them.
Key:
[1] = target: T1, elastase (Porcine pancreatic elastase) (Sus scrofa, UniProt P00772); assay: absorbance […] nm, p-nitroanilide release; format: biochemical
T1 construct: gene CELA1; native pancreatic enzyme, commercial preparation; mature active enzyme

[2] = target: T2, hyaluronidase from bovine testes type I-S (Bos taurus, UniProt Q2YDK3); assay: turbidity with acidic albumin, absorbance […] nm; format: biochemical; settings: hyaluronic acid substrate (0.03% stock); phosphate pH 5.35; 37 °C; 45 min; preincubation at pH 7
T2 construct: gene SPAM1; native bovine testes enzyme, commercial type I-S preparation
T2 sequence (Q2YDK3 36-553): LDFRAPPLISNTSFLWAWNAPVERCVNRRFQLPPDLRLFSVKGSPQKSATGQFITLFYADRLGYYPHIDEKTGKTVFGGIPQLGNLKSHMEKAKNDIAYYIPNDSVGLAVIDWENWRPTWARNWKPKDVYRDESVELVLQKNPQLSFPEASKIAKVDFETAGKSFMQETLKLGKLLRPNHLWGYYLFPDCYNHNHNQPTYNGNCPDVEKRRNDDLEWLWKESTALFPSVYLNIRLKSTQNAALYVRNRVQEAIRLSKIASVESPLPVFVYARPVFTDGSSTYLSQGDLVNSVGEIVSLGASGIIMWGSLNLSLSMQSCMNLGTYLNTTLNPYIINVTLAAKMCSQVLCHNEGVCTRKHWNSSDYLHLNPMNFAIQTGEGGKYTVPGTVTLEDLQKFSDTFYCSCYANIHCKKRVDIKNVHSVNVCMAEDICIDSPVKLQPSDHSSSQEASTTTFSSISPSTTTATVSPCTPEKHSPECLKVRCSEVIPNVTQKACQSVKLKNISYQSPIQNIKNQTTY

huRPA32 = huRPA32 (human, UniProt P15927 1-270); assay: EMSA; no extract; [Protein]50; 40 mM Tris-HCl pH 7.5, 50 mM NaCl, 37 °C 60 min, DNA 30 fmol/uL; 8% native PAGE in TBE; settings: protein: recombinant; tags: N-terminal EF (EcoRI site); label: 5' biotin; single-stranded
Sequence of huRPA32 (P15927 whole entry): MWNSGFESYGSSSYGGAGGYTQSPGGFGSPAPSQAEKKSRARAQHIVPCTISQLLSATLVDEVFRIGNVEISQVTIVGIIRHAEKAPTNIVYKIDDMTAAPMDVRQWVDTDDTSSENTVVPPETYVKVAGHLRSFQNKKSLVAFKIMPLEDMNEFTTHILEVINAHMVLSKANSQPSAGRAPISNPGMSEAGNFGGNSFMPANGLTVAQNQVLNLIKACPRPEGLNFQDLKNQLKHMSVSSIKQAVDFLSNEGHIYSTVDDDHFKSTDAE

T1 sequence (P00772 27-266): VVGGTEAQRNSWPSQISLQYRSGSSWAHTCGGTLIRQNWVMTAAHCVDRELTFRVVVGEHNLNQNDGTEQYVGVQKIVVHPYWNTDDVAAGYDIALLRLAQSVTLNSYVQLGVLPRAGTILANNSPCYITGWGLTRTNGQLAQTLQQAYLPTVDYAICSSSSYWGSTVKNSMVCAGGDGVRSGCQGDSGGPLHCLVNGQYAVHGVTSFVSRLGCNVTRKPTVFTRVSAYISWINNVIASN

IC50 [1]: 9.62 µM
Molecule: O=C(O[C@@H]1Cc2c(O)cc(O)cc2O[C@@H]1c1cc(O)c(O)c(O)c1)c1cc(O)c(O)c(O)c1 [EGCG]

IC50 [2]: 29.9 µM
Molecule: O=c1c(O)c(-c2cc(O)c(O)c(O)c2)oc2cc(O)cc(O)c12 [Myr]

Molecule: TTTTTTTTTTTTTTTTTTTTTTTTT (ssDNA) [dT25]
apparent K (half saturation) (huRPA32): 6.3 ± 0.5 µM

From article PMC10974603, “Cytotoxicity and Multi-Enzyme Inhibition of Nepenthes miranda Stem Extract on H838 Human Non-Small Cell Lung Cancer Cells and RPA32, Elastase, Tyrosinase, and Hyaluronidase Proteins” (Plants, 2024)
